Legend:
[1] = system: C57BL/6 mice; test: In vivo expression level of Luciferase-mRNA delivered by intramuscular injection (bioluminescence imaging); conditions: mRNA-loaded nanoparticles, intramuscular (leg muscle), 5 μg Luciferase-mRNA, 6 hours
Method: Luciferase-mRNA was used as an mRNA model; and the cationic lipid analogues of Examples 1-5 were used to prepare drug-loaded nanoparticles according to the method of Example 6.
100 μL of nanoparticles containing 5 μg Luciferase-mRNA or the drug-loaded nanoparticles prepared above were injected into the leg muscles of 6-8 week-old C57BL/6 mice, and 200 μL of 1×PBS solution containing 3 mg D-Luciferin potassium salt was intraperitoneally injected into the mice 6 hours later. After waiting for 10 minutes, an in vivo expression level of the mRNA was evaluated by bioluminescence imaging.

[2] = system: C57BL/6 mice; test: In vivo expression level of Luciferase-mRNA delivered by intravenous injection (bioluminescence imaging); conditions: mRNA-loaded nanoparticles, intravenous (tail vein), 5 μg Luciferase-mRNA, 6 hours; for Fluorescence intensity of liver / Bioluminescence intensity: compounds of Example 1
Summary of the method: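 Lipid nanoparticles carrying 5 μg Luciferase-mRNA given by tail-vein injection to 6-8-week-old C57BL/6 mice. At 6 h, 3 mg D-luciferin i.p. in PBS; bioluminescence imaged 10 min later as the expression read-out.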

Row | Compound | Local fluorescence intensity ([1]; compounds of Example 3) | Fluorescence intensity of spleen ([2]; compounds of Example 3) | Local fluorescence intensity ([1]; compounds of Example 1) | further results
1 | CCCCCCCCCCSSCCC(=O)N(CCCCCO)C(C(=O)NCCN(CCNC(=O)C(C(C)C)N(CCCCCO)C(=O)CCSSCCCCCCCCCC)CCNC(=O)C(C(C)C)N(CCCCCO)C(=O)CCSSCCCCCCCCCC)C(C)C (stereo not drawn) [A1I5R27S15] | 3.57E+05 | 7.96E+05 | – | –
2 | CCCCCCCCCCSSCCC(=O)N(CCCCCCO)C(C(=O)NCCN(CCNC(=O)C(C(C)C)N(CCCCCCO)C(=O)CCSSCCCCCCCCCC)CCNC(=O)C(C(C)C)N(CCCCCCO)C(=O)CCSSCCCCCCCCCC)C(C)C (stereo not drawn) [A1I5R28S15] | 6.01E+05 | 3.31E+06 | – | –
3 | CCCCCCCCCCSSCCC(=O)N(C(C(=O)NCCN(CCNC(=O)C(C(C)C)N(C(=O)CCSSCCCCCCCCCC)C(C)(CO)CO)CCNC(=O)C(C(C)C)N(C(=O)CCSSCCCCCCCCCC)C(C)(CO)CO)C(C)C)C(C)(CO)CO (stereo not drawn) [A1I5R29S15] | 7.63E+04 | 3.13E+05 | – | –
4 | CCCCCCCCCCSSCCC(=O)N(C(C(=O)NCCN(CCNC(=O)C(C(C)C)N(C(=O)CCSSCCCCCCCCCC)C(CO)(CO)CO)CCNC(=O)C(C(C)C)N(C(=O)CCSSCCCCCCCCCC)C(CO)(CO)CO)C(C)C)C(CO)(CO)CO (stereo not drawn) [A1I5R30S15] | 7.77E+04 | 6.31E+04 | – | –
5 | CCCCCCCCCCSSCCC(=O)N(CCCOCC)C(C(=O)NCCN(CCNC(=O)C(C(C)C)N(CCCOCC)C(=O)CCSSCCCCCCCCCC)CCNC(=O)C(C(C)C)N(CCCOCC)C(=O)CCSSCCCCCCCCCC)C(C)C (stereo not drawn) [A1I5R31S15] | 2.94E+06 | 6.13E+05 | – | –
6 | CCCCCCCCCCSSCCC(=O)N(CCCOC(C)C)C(C(=O)NCCN(CCNC(=O)C(C(C)C)N(CCCOC(C)C)C(=O)CCSSCCCCCCCCCC)CCNC(=O)C(C(C)C)N(CCCOC(C)C)C(=O)CCSSCCCCCCCCCC)C(C)C (stereo not drawn) [A1I5R32S15] | 1.18E+06 | 2.48E+05 | – | –
7 | CCCCCCCCCCSSCCC(=O)N(C(CC)COC)C(C(=O)NCCN(CCNC(=O)C(C(C)C)N(C(=O)CCSSCCCCCCCCCC)C(CC)COC)CCNC(=O)C(C(C)C)N(C(=O)CCSSCCCCCCCCCC)C(CC)COC)C(C)C (stereo not drawn) [A1I5R33S15] | 1.52E+06 | 2.33E+05 | – | –
8 | CCCCCCCCCCSSCCC(=O)N(CC(OC)OC)C(C(=O)NCCN(CCNC(=O)C(C(C)C)N(CC(OC)OC)C(=O)CCSSCCCCCCCCCC)CCNC(=O)C(C(C)C)N(CC(OC)OC)C(=O)CCSSCCCCCCCCCC)C(C)C (stereo not drawn) [A1I5R34S15] | 1.24E+06 | 2.84E+05 | – | –
9 | CCCCCCCCCCSSCCC(=O)N(CC1CCCO1)C(C(=O)NCCN(CCNC(=O)C(C(C)C)N(CC1CCCO1)C(=O)CCSSCCCCCCCCCC)CCNC(=O)C(C(C)C)N(CC1CCCO1)C(=O)CCSSCCCCCCCCCC)C(C)C (stereo not drawn) [A1I5R35S15] | 2.62E+06 | 3.21E+05 | – | –
10 | CCCCCCCCCCSSCCC(=O)N(CCOCCO)C(C(=O)NCCN(CCNC(=O)C(C(C)C)N(CCOCCO)C(=O)CCSSCCCCCCCCCC)CCNC(=O)C(C(C)C)N(CCOCCO)C(=O)CCSSCCCCCCCCCC)C(C)C (stereo not drawn) [A1I5R36S15] | 8.27E+04 | 3.27E+06 | – | –
11 | CCCCCCCCCCSSCCC(=O)N(CC(=O)OCC)C(C(=O)NCCN(CCNC(=O)C(C(C)C)N(CC(=O)OCC)C(=O)CCSSCCCCCCCCCC)CCNC(=O)C(C(C)C)N(CC(=O)OCC)C(=O)CCSSCCCCCCCCCC)C(C)C (stereo not drawn) [A1I5R37S15] | 1.26E+06 | 1.61E+05 | – | –
12 | CCCCCCCCCCSSCCC(=O)N(CCCC(=O)OC)C(C(=O)NCCN(CCNC(=O)C(C(C)C)N(CCCC(=O)OC)C(=O)CCSSCCCCCCCCCC)CCNC(=O)C(C(C)C)N(CCCC(=O)OC)C(=O)CCSSCCCCCCCCCC)C(C)C (stereo not drawn) [A1I5R38S15] | 4.72E+04 | 1.14E+05 | – | –
13 | CCCCCCCCCCSSCCC(=O)N(CCCC(=O)OCC)C(C(=O)NCCN(CCNC(=O)C(C(C)C)N(CCCC(=O)OCC)C(=O)CCSSCCCCCCCCCC)CCNC(=O)C(C(C)C)N(CCCC(=O)OCC)C(=O)CCSSCCCCCCCCCC)C(C)C (stereo not drawn) [A1I5R39S15] | 2.15E+04 | 3.88E+04 | – | –
14 | CCCCCCCCCCSSCCC(=O)N(C(C)C(=O)OC)C(C(=O)NCCN(CCNC(=O)C(C(C)C)N(C(=O)CCSSCCCCCCCCCC)C(C)C(=O)OC)CCNC(=O)C(C(C)C)N(C(=O)CCSSCCCCCCCCCC)C(C)C(=O)OC)C(C)C (stereo not drawn) [A1I5R40S15] | 3.86E+05 | 1.39E+04 | – | –
15 | CCCCCCCCCCSSCCC(=O)N(CS(=O)(=O)O)C(C(=O)NCCN(CCNC(=O)C(C(C)C)N(CS(=O)(=O)O)C(=O)CCSSCCCCCCCCCC)CCNC(=O)C(C(C)C)N(CS(=O)(=O)O)C(=O)CCSSCCCCCCCCCC)C(C)C (stereo not drawn) [A1I5R41S15] | 1.81E+05 | 4.22E+05 | – | –
16 | CCCCCCCCCCCCNC(=O)C(C(C)C)N(CCN(CCN(C(=O)CO)C(C(=O)NCCCCCCCCCCCC)C(C)C)CCN(C(=O)CO)C(C(=O)NCCCCCCCCCCCC)C(C)C)C(=O)CO (stereo not drawn) [A1I12R47C21] | – | – | – | Local fluorescence intensity ([1]; compounds of Example 5): 2.22E+05; Fluorescence intensity of spleen ([2]; compounds of Example 5): 3.10E+05
17 | CCCCC/C=C\C/C=C\CCCCCCCC(=O)N(CCCN(C)C)C(C(=O)NCCCCCCCCCCCCCCCCCC)C(C)C (stereo not drawn) [A1I18R2C18-2] | – | – | 7.88E+04 | Fluorescence intensity of liver [2]: 5.42E+04

Row | Compound | Local fluorescence intensity ([1]; compounds of Example 3) | Fluorescence intensity of spleen ([2]; compounds of Example 3) | Local fluorescence intensity ([1]; compounds of Example 1) | further results
18 | CCCCCCCCCCCCCCCCCCNC(=O)C(C(C)C)N(CCCN(C)C)C(=O)CCCCCCCCCCCCCCCCC (stereo not drawn) [A1I18R2C18] | – | – | 1.36E+05 | Fluorescence intensity of liver [2]: 2.26E+04
19 | CCCCC/C=C\C/C=C\CCCCCCCC(=O)N(CCCN1CCOCC1)C(C(=O)NCCCCCCCCCCCCCCCCCC)C(C)C (stereo not drawn) [A1I18R5C18-2] | – | – | 8.15E+04 | Fluorescence intensity of liver [2]: 3.77E+03
20 | CCCCCCCCCCCCCCCCCCNC(=O)C(C(C)C)N(CCCN1CCOCC1)C(=O)CCCCCCCCCCCCCCCCC (stereo not drawn) [A1I18R5C18] | – | – | 5.25E+04 | Fluorescence intensity of liver [2]: 1.16E+03
21 | CCCCC/C=C\C/C=C\CCCCCCCC(=O)N(CCN1CCCCC1)C(C(=O)NCCCCCCCCCCCCCCCCCC)C(C)C (stereo not drawn) [A1I18R12C18-2] | – | – | 3.38E+06 | Fluorescence intensity of liver [2]: 1.41E+03
22 | CCCCCCCCCCCCCCCCCCNC(=O)C(C(C)C)N(CCN1CCCCC1)C(=O)CCCCCCCCCCCCCCCCC (stereo not drawn) [A1I18R12C18] | – | – | 4.37E+04 | Bioluminescence intensity [2]: 9.34E+02
23 | CCCCC/C=C\C/C=C\CCCCCCCC(=O)N(CCN(CCN(C(=O)CCCCCCC/C=C\C/C=C\CCCCC)C(C(=O)NCCOC)C(C)C)CCN(C(=O)CCCCCCC/C=C\C/C=C\CCCCC)C(C(=O)NCCOC)C(C)C)C(C(=O)NCCOC)C(C)C (stereo not drawn) [A1I31R47C18-2] | – | – | – | Local fluorescence intensity ([1]; compounds of Example 5): 2.24E+05; Fluorescence intensity of spleen ([2]; compounds of Example 5): 6.90E+04
24 | CCCCCCCC/C=C\CCCCCCCC(=O)N(CCO)C(C(=O)NCCN(C)CCNC(=O)C(C(CC)CCCC)N(CCO)C(=O)CCCCCCC/C=C\CCCCCCCC)C(CC)CCCC (stereo not drawn) [A4I4R22C18-1] | – | – | – | Local fluorescence intensity ([1]; compounds of Example 2): 5.47E+05; Fluorescence intensity of spleen ([2]; compounds of Example 2): 6.82E+05
25 | CCCCC/C=C\C/C=C\CCCCCCCC(=O)N(CCO)C(C(=O)NCCN(C)CCNC(=O)C(C(CC)CCCC)N(CCO)C(=O)CCCCCCC/C=C\C/C=C\CCCCC)C(CC)CCCC (stereo not drawn) [A4I4R22C18-2] | – | – | – | Local fluorescence intensity ([1]; compounds of Example 2): 4.66E+05; Fluorescence intensity of spleen ([2]; compounds of Example 2): 2.61E+05
26 | CCCCCCCCCCCCCCCCCC(=O)N(CCO)C(C(=O)NCCN(C)CCNC(=O)C(C(CC)CCCC)N(CCO)C(=O)CCCCCCCCCCCCCCCCC)C(CC)CCCC (stereo not drawn) [A4I4R22C18] | – | – | – | Local fluorescence intensity ([1]; compounds of Example 2): 5.53E+05; Fluorescence intensity of spleen ([2]; compounds of Example 2): 5.51E+05
27 | CCCCC/C=C\C/C=C\CCCCCCCC(=O)N(CCOC)C(C(=O)NCCN(C)CCNC(=O)C(C(CC)CCCC)N(CCOC)C(=O)CCCCCCC/C=C\C/C=C\CCCCC)C(CC)CCCC (stereo not drawn) [A4I4R23C18-2] | – | – | – | Local fluorescence intensity ([1]; compounds of Example 2): 1.93E+04; Fluorescence intensity of spleen ([2]; compounds of Example 2): 4.96E+05
28 | CCCCCCCCCCCCCCCCCC(=O)N(CCOC)C(C(=O)NCCN(C)CCNC(=O)C(C(CC)CCCC)N(CCOC)C(=O)CCCCCCCCCCCCCCCCC)C(CC)CCCC (stereo not drawn) [A4I4R23C18] | – | – | – | Local fluorescence intensity ([1]; compounds of Example 2): 6.36E+04; Fluorescence intensity of spleen ([2]; compounds of Example 2): 2.16E+05
29 | CCCCCCCC/C=C\CCCCCCCC(=O)N(CCN(C)C)C(C(=O)NCCCCCCCCCCCCCCCCCC)C(CC)CCCC (stereo not drawn) [A4I18R1C18-1] | – | – | 1.54E+07 | Bioluminescence intensity [2]: 1.39E+07
30 | CCCCC/C=C\C/C=C\CCCCCCCC(=O)N(CCN(C)C)C(C(=O)NCCCCCCCCCCCCCCCCCC)C(CC)CCCC (stereo not drawn) [A4I18R1C18-2] | – | – | 2.11E+07 | Fluorescence intensity of liver [2]: 9.67E+06
31 | CCCCCCCC/C=C\CCCCCCCC(=O)N(CCCN(C)C)C(C(=O)NCCCCCCCCCCCCCCCCCC)C(CC)CCCC (stereo not drawn) [A4I18R2C18-1] | – | – | 1.32E+07 | Bioluminescence intensity [2]: 1.33E+07
32 | CCCCC/C=C\C/C=C\CCCCCCCC(=O)N(CCCN(C)C)C(C(=O)NCCCCCCCCCCCCCCCCCC)C(CC)CCCC (stereo not drawn) [A4I18R2C18-2] | – | – | 2.97E+07 | Bioluminescence intensity [2]: 2.06E+07
33 | CCCCCCCCCCCCCCCCCCNC(=O)C(C(CC)CCCC)N(CCCN(C)C)C(=O)CCCCCCCCCCCCCCCCC (stereo not drawn) [A4I18R2C18] | – | – | 9.04E+05 | Fluorescence intensity of liver [2]: 5.05E+05

— patent publication US20250161216A1, “CATIONIC LIPID ANALOGUES, COMPOSITIONS AND USES THEREOF” (GUANGZHOU LIDE BIOMEDICINE TECHNOLOGY CO., LTD., priority 2022, published 2025)
